Measurements taken from the supplement of paper PMC11208160.

Assay: recombinant barcode read abundance after kanamycin selection (control-corrected) (log10(CPM+1)); higher = more efficient recombination; sequences stand for … in AGTGCAGAGAAAATCGGCCAGTTTTCTCTGCCTGCAGTCCGCATGCCGT…AGATTTATGCAGCGGACTGCCTTTCTCCCAAAGTGATAAACCGGACAGTATCATGGACCGGTTTTCCCGGTAATCCGTATTTGCAAGGTTGGTTTCACT; site = the 11-nt target
Procedure: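 Pooled E. coli target-specificity screen for the IS621 bridge recombinase. Each library plasmid pairs an 11-nt target (CT core) with a bridge RNA whose target-binding loop (9-nt LTG + 4-nt RTG) is reprogrammed; the rest of the 177-nt WT IS621 bridge RNA scaffold is fixed. The plasmid is co-electroporated with a WT donor plasmid; recombinase is induced with 0.1 mM IPTG and recombinants are selected on kanamycin. Recombinant barcodes are sequenced, converted to CPM, averaged over two biological replicates and corrected by the unselected control CPM. Molecule = full bridge RNA written as DNA: LTG = specificity nt 1-9, RTG = reverse complement of specificity nt 8-11, in the WT scaffold.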
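Also: IS621 recombinase and bridge RNA in Escherichia coli cells.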

Sequence | recombinant barcode read abundance (log10)
ACCTAACCTTGGGTTCTAACCTGTTGCAT (site ACCTAACCTAT) | 1.67
ACCTAACCTTGGGTTCTAACCTGTTGCAT (site ATCTATCCTAT) | 0.214
ACCTACCCTTGGGTTCTAACCTGTTGCGG (site ACCTACCCTCC) | 2.33
ACCTACCCTTGGGTTCTAACCTGTTGCGG (site CGAACATCTAA) | 0.169
ACCTACCCTTGGGTTCTAACCTGTTGCGT (site ACATATCCTAC) | 0.0563
ACCTACCCTTGGGTTCTAACCTGTTGCGT (site ACCTACCCTAC) | 1.54
ACCTACTCTTGGGTTCTAACCTGTTGCCT (site ACCTACGCTAG) | 0.0426
ACCTACTCTTGGGTTCTAACCTGTTGCCT (site ACCTACTCTAG) | 1.36
ACCTGAACTTGGGTTCTAACCTGTTGCCT (site ACATGAACTAG) | 0.056
ACCTGAACTTGGGTTCTAACCTGTTGCCT (site ACCTGAACTAG) | 0.75
ACCTGAACTTGGGTTCTAACCTGTTGCCT (site ACGTGAACTAG) | 0.0712
ACCTGAACTTGGGTTCTAACCTGTTGCCT (site ACTTGAACTAG) | 0.0237
ACCTGTGCTTGGGTTCTAACCTGTTGCCT (site ACCTGTGCTAG) | 0.874
ACCTGTGCTTGGGTTCTAACCTGTTGCCT (site ATCTGTTCTAG) | 0.151
ACCTTGTCTTGGGTTCTAACCTGTTGCCT (site ACATTGTCTAG) | 0.217
ACCTTGTCTTGGGTTCTAACCTGTTGCCT (site ACCTTGTCTAG) | 0.93
ACCTTGTCTTGGGTTCTAACCTGTTGCCT (site ACGTTGTCTAG) | 0.0273
ACCTTGTCTTGGGTTCTAACCTGTTGCCT (site ACTTTGTCTAG) | 0.0709
ACGAACCCTTGGGTTCTAACCTGTTGCCT (site ACGAACCCTAG) | 1.42
ACGAACCCTTGGGTTCTAACCTGTTGCCT (site ACGGACCCTAT) | 0.247
ACGAAGACTTGGGTTCTAACCTGTTGCCG (site ACGAAGACTCG) | 1.08

Sequence | recombinant barcode read abundance (log10)
ACGAAGACTTGGGTTCTAACCTGTTGCCG (site ACGAGGACTCG) | 0.0668
ACGACGTCTTGGGTTCTAACCTGTTGCTT (site ACGACGTCTAA) | 0.292
ACGACGTCTTGGGTTCTAACCTGTTGCTT (site TCGACGCCTAA) | 0.08
ACGACTACTTGGGTTCTAACCTGTTGCCG (site ACGACTACTCG) | 0.618
ACGACTACTTGGGTTCTAACCTGTTGCCG (site TATTGGCCTAC) | 0.123
ACGATAACTTGGGTTCTAACCTGTTGCCA (site ACGATAACTTG) | 0.215
ACGATAACTTGGGTTCTAACCTGTTGCCA (site CTAGATTCTAT) | 0.363
ACGATACCTTGGGTTCTAACCTGTTGCCT (site ACGATACCTAG) | 0.967
ACGATACCTTGGGTTCTAACCTGTTGCCT (site ACGTTACCTAG) | 0.0943
ACGATATCTTGGGTTCTAACCTGTTGCCT (site AAGATATCTAG) | 0.181
ACGATATCTTGGGTTCTAACCTGTTGCCT (site ACGATATCTAG) | 1.37
ACGATATCTTGGGTTCTAACCTGTTGCCT (site AGGATATCTAG) | 0.549
ACGATATCTTGGGTTCTAACCTGTTGCCT (site ATGATATCTAG) | 0.0859
ACGATCGCTTGGGTTCTAACCTGTTGCCT (site ACGAACGCTAG) | 0.08
ACGATCGCTTGGGTTCTAACCTGTTGCCT (site ACGACCGCTAG) | 0.197
ACGATCGCTTGGGTTCTAACCTGTTGCCT (site ACGAGCGCTAG) | 0.12
ACGATCGCTTGGGTTCTAACCTGTTGCCT (site ACGATCGCTAG) | 1.25
ACGATTCCTTGGGTTCTAACCTGTTGCCT (site AAGATTCCTAG) | 0.132
ACGATTCCTTGGGTTCTAACCTGTTGCCT (site ACGATTCCTAG) | 0.355
ACGATTCCTTGGGTTCTAACCTGTTGCCT (site AGGATTCCTAG) | 0.101
ACGATTCCTTGGGTTCTAACCTGTTGCCT (site ATGATTCCTAG) | 0.0978

Sequence | recombinant barcode read abundance (log10)
ACGCACACTTGGGTTCTAACCTGTTGCCT (site ACGCACACTAG) | 0.214
ACGCACACTTGGGTTCTAACCTGTTGCCT (site CCGCACACTAG) | 0.182
ACGCACACTTGGGTTCTAACCTGTTGCCT (site GCGCACACTAG) | 0.236
ACGCACACTTGGGTTCTAACCTGTTGCCT (site TCGCACACTAG) | 0.233
ACGCACCCTTGGGTTCTAACCTGTTGCCA (site ACGAGCCCTTG) | 0.123
ACGCACCCTTGGGTTCTAACCTGTTGCCA (site ACGCACCCTTG) | 0.379
ACGCACGCTTGGGTTCTAACCTGTTGCGG (site ACACACCCTCC) | 0.0809
ACGCACGCTTGGGTTCTAACCTGTTGCGG (site ACGCACGCTCC) | 0.979
ACGCCGACTTGGGTTCTAACCTGTTGCCT (site ACGCCGACTAG) | 0.432
ACGCCGACTTGGGTTCTAACCTGTTGCCT (site ACGCGGACTAG) | 0.285
ACGCGAGCTTGGGTTCTAACCTGTTGCCG (site ACGCGAGCTCA) | 0.209
ACGCGAGCTTGGGTTCTAACCTGTTGCCG (site ACGCGAGCTCC) | 0.345
ACGCGAGCTTGGGTTCTAACCTGTTGCCG (site ACGCGAGCTCG) | 0.288
ACGCGAGCTTGGGTTCTAACCTGTTGCCG (site ACGCGAGCTCT) | 0.215
ACGCGAGCTTGGGTTCTAACCTGTTGCTG (site ACGCGAGCTCA) | 0.0871
ACGCGAGCTTGGGTTCTAACCTGTTGCTG (site ACGCGAGCTCC) | 0
ACGCGAGCTTGGGTTCTAACCTGTTGCTG (site ACGCGAGCTCG) | 0.14
ACGCGAGCTTGGGTTCTAACCTGTTGCTG (site ACGCGAGCTCT) | 0.187
ACGCGTCCTTGGGTTCTAACCTGTTGCCG (site ACGCGTCCTCG) | 0.263
ACGCGTCCTTGGGTTCTAACCTGTTGCCG (site TCGCGTCCTCG) | 0.355
ACGCTAGCTTGGGTTCTAACCTGTTGCCT (site ACGCTAGCTAG) | 0.357

Sequence | recombinant barcode read abundance (log10)
ACGCTAGCTTGGGTTCTAACCTGTTGCCT (site CCGCTAGCTAG) | 0.138
ACGCTAGCTTGGGTTCTAACCTGTTGCCT (site GCGCTAGCTAG) | 0.226
ACGCTAGCTTGGGTTCTAACCTGTTGCCT (site TCGCTAGCTAG) | 0.0462
ACGCTGGCTTGGGTTCTAACCTGTTGCCT (site ACACTGGCTAG) | 0.386
ACGCTGGCTTGGGTTCTAACCTGTTGCCT (site ACCCTGGCTAG) | 0.0594
ACGCTGGCTTGGGTTCTAACCTGTTGCCT (site ACGCTGGCTAG) | 0.381
ACGCTGGCTTGGGTTCTAACCTGTTGCCT (site ACTCTGGCTAG) | 0.0925
ACGGGATCTTGGGTTCTAACCTGTTGCCT (site ACGGGATCTAG) | 1.57
ACGGGATCTTGGGTTCTAACCTGTTGCCT (site CCGGGATCTAG) | 0.24
ACGGGATCTTGGGTTCTAACCTGTTGCCT (site GCGGGATCTAG) | 0.129
ACGGGATCTTGGGTTCTAACCTGTTGCCT (site TCGGGATCTAG) | 0.0975
ACGGGTCCTTGGGTTCTAACCTGTTGCAG (site ACGGGTCCTCT) | 3.09
ACGGGTCCTTGGGTTCTAACCTGTTGCAG (site GGCAAGGCTAG) | 0.0641
ACGGGTTCTTGGGTTCTAACCTGTTGCCT (site ACGGGTTCTAG) | 2.46
ACGGGTTCTTGGGTTCTAACCTGTTGCCT (site TCCGGTTCTAG) | 0.107
ACGGTCACTTGGGTTCTAACCTGTTGCCT (site AAGGTCACTAG) | 0.331
ACGGTCACTTGGGTTCTAACCTGTTGCCT (site ACGGTCACTAG) | 2.95
ACGGTCACTTGGGTTCTAACCTGTTGCCT (site AGGGTCACTAG) | 0.264
ACGGTCACTTGGGTTCTAACCTGTTGCCT (site ATGGTCACTAG) | 0.869
